Reference: patent publication US20230212180A1, “SUBSTITUTED PYRAZINE COMPOUND, PHARMACEUTICAL COMPOSITION COMPRISING SAME, AND USE THEREOF” (Sichuan Kelun-Biotech Biopharmaceutical Co., Ltd., priority 2020, published 2023)

What was measured:
CYP1A2 = molecular target: T1, CYP1A2 (Homo sapiens, UniProt P05177); assay: Biochemical assay for CYP enzyme inhibition, P450-Glo CYP1A2 Screening System; assay type: in vitro ADME; conditions: estimated from percentage inhibition; read-out: IC50 (μM) CYP1A2
T1 construct: purchased Promega
T1 sequence (P05177 1-516): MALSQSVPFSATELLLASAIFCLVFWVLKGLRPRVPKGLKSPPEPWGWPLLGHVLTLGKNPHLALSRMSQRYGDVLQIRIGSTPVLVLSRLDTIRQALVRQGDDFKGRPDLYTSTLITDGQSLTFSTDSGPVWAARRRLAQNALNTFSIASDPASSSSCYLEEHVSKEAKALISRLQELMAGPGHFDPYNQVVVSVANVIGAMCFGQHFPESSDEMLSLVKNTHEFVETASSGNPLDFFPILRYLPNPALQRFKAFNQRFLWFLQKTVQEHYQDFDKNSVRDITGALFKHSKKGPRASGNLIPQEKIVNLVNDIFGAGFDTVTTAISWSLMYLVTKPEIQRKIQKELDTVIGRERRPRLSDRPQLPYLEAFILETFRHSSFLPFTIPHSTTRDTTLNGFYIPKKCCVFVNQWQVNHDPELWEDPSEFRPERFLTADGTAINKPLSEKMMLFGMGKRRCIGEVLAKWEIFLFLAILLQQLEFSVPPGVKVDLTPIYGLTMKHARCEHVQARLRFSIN
Experimental: (§1) Test Example 5: Biochemical Assay for CYP Enzyme (Cytochrome P450) Inhibition
P450-Glo™ CYP1A2 Screening System, (Promega);
(§2) BMG PHERAstar FS Luminescent.
(§3) The experiments were carried out separately according to the instructions of the kits. The steps were as follows:
3.1. Inhibition Against CYP1A2:
(§4) Test group: The test compounds at different concentrations were added into a microplate, and Luciferin-ME (100 μM), K3PO4 (100 mM), and CYP1A2 (0.01 μmol/μL) were added into each well, and pre-incubated at room temperature for 10 min. Thereafter, an NADPH regeneration system was added. The mixture was reacted at room temperature for 30 min. Finally, an equal volume of detection buffer was added and incubated at room temperature for 20 min, followed by chemiluminescence detection.
(§5) Negative control group: The experimental method for the negative control group was the same as that for the test group, except that the test compound was not added.
Blank control group: The experimental method for the blank control group was the same as that for the test group, except that the test compound was not added and that CYP1A2 was replaced with CYP1A2 Membrance (0.01 μmol/μL).
(§6) Percentage inhibition=(1−(the chemiluminescent signal value of the test compound group at a certain test concentration−the chemiluminescent signal value of the blank control group)/(the chemiluminescent signal value of the negative control group−the chemiluminescent signal value of the blank control group))×100%.
(§7) When the percentage inhibition was between 30% and 80%, a single value or a value range of the half maximal inhibitory concentration (IC50) of the compound against the CYP enzyme was estimated based on the following equation: IC50=X×(1−percentage inhibition)/percentage inhibition, wherein X was the test concentration of the compound.

CYP2D6 = molecular target: T2, CYP2D6 (Homo sapiens, UniProt P10635); assay: Biochemical assay for CYP enzyme inhibition, P450-Glo CYP2D6 Screening System; assay type: in vitro ADME; conditions: estimated from percentage inhibition; read-out: IC50 (μM) CYP2D6
T2 construct: purchased Promega
T2 sequence (P10635 whole entry): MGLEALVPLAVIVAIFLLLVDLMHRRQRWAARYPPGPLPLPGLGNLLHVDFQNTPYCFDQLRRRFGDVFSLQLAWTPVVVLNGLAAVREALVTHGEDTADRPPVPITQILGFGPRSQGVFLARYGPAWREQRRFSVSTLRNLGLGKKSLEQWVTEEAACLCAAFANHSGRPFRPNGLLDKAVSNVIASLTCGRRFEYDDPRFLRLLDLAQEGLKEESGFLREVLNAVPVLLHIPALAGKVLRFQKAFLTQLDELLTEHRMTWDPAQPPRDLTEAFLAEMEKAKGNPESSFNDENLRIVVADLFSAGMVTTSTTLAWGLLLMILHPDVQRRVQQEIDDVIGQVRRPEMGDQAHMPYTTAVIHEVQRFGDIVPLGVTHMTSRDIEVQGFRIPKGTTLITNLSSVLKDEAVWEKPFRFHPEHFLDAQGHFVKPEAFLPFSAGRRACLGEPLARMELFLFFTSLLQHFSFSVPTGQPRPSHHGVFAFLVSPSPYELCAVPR
Experimental: as §1
P450-Glo™ CYP2D6 Screening System, (Promega);
as §2, §3
3.2. Inhibition Against CYP2D6:
as §4, with “and Luciferin-ME EGE (3 μM), K3PO4” for “and Luciferin-ME (100 μM), K3PO4”, “mM), and CYP2D6 (5 nM) were added” for “mM), and CYP1A2 (0.01 μmol/μL) were added”, “reacted at 37° C. for 30” for “reacted at room temperature for 30”
as §5
Blank control group: The experimental method for the blank control group was the same as that for the test group, except that the test compound was not added and that CYP2D6 was replaced with CYP2D6 Membrance (5 nM).
as §6, §7

CYP3A4 = molecular target: T3, CYP3A4 (Homo sapiens, UniProt P08684); assay: Biochemical assay for CYP enzyme inhibition, P450-Glo CYP3A4 Screening System; assay type: in vitro ADME; conditions: estimated from percentage inhibition; read-out: IC50 (μM) CYP3A4
T3 construct: purchased Promega
T3 sequence (P08684 whole entry): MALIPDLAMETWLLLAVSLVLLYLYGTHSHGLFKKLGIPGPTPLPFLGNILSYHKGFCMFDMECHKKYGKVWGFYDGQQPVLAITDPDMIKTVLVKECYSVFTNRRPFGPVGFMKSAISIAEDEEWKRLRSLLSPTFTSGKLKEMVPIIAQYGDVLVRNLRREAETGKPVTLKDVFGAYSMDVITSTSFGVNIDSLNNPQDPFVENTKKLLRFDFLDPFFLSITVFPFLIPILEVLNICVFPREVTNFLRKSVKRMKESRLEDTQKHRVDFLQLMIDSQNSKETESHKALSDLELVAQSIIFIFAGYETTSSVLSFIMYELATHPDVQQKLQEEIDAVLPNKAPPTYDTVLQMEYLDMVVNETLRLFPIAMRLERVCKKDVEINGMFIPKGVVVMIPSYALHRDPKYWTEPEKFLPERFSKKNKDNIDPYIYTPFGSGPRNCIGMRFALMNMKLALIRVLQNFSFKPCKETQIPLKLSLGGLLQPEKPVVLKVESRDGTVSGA
Experimental: as §1
P450-Glo™ CYP3A4 Screening System, (Promega).
as §2, §3
3.3. Inhibition Against CYP3A4:
as §4, with “Luciferin-IPA ([…]),” for “Luciferin-ME (100 μM),”, “CYP3A4 (2 nM)” for “CYP1A2 (0.01 μmol/μL)”
as §5
Blank control group: The experimental method for the blank control group was the same as that for the test group, except that the test compound was not added and that CYP3A4 was replaced with CYP3A4 Membrance (2 nM).
as §6, §7

[1] = Pharmacokinetic (PK) studies in Balb/c mouse; assay type: in vivo; conditions: female, Balb/c, mouse, in vivo
Experimental: Test Example 7: Pharmacokinetic (PK) Studies in Balb/c Mouse
The compound of Example 12, Control Compound 1, Control Compound 2, and TNO-155 were administered to female Balb/c mice by intravenous injection (IV) and gavage (PO) respectively to estimate the pharmacokinetic properties. Dosing amounts for IV and PO routes were 1 mg/kg and 10 mg/kg, respectively. The solvent for IV route was 5% DMSO+5% Solutol+90% Saline, and the solvent for PO route was 0.5% MC (sodium methylcellulose). Blood was collected at various time points after IV and PO administration. The blood from the test groups of the compound of Example 12, Control Compound 1, and Control Compound 2 was anticoagulated using EDTA.K2 and preserved at −80° C. The blood from the test groups of TNO-155 was anticoagulated using EDTA.K2 and centrifuged to obtain plasma samples, and the plasma samples were preserved at −80° C.
The blood or plasma samples were subjected to protein precipitation and then to the LC-MS/MS analysis. WinNonlin 6.3 software was used to calculate the pharmacokinetic parameters by non-compartmental model, and the results were listed in Table 7 below.

[2] = Pharmacokinetic (PK) studies in beagle dog; assay type: in vivo; conditions: dog, male beagle dogs, plasma
Experimental: Test Example 8: Pharmacokinetic (PK) Studies in Beagle Dog
(§8) The compound of Example 12, Control Compound 1, Control Compound 2, and TNO-155 were administered to male beagle dogs by intravenous injection (IV) and gavage (PO) respectively to estimate the pharmacokinetic properties. Dosing amounts for IV and PO routes were 0.5 mg/kg and 2.5 mg/kg. The solvent for IV route was 5% DMSO+5% Solutol+90% Saline, and the solvent for PO route was 0.5% MC (sodium methylcellulose). Blood was collected at various time points after IV and PO administration. The blood was anticoagulated using EDTA.K2, and centrifuged to obtain plasma samples. The plasma samples were preserved at −80° C.
The plasma samples were subjected to protein precipitation and then to the LC-MS/MS analysis. WinNonlin 6.3 software was used to calculate the pharmacokinetic parameters by non-compartmental model, and the results were listed in Table 8 below.

[3] = Pharmacokinetic (PK) studies in SD rat; assay type: in vivo; conditions: rat, male SD rats, plasma
Experimental: Test Example 6: Pharmacokinetic (PK) Studies in SD Rat
as §8, with “Example 12 and” for “Example 12,”, “Compound 2” for “Compound 1, Control Compound 2, and TNO-155”, “male SD rats” for “male beagle dogs”, “were 1” for “were 0.5”, “and 5 mg/kg, respectively.” for “and 2.5 mg/kg.”, “DMSO+5% Solutol (polyoxyl 15-hydroxystearate)+90% Saline (physiological saline),” for “DMSO+5% Solutol+90% Saline,”
The plasma samples were subjected to protein precipitation and then to the LC-MS/MS analysis. WinNonlin 6.3 software was used to calculate the pharmacokinetic parameters by non-compartmental model, and the results were listed in Table 6 below.

Row | IC50 (CYP1A2) [µM] | IC50 (CYP2D6) [µM] | IC50 (CYP3A4) [µM] | AUC(0-t) ([1]; iv, 1 mg/kg) [ng·h/mL] | clearance ([1]; iv, 1 mg/kg) [mL/min/kg] | AUC(0-t) ([1]; po, 10 mg/kg) [ng·h/mL] | half-life ([1]; po, 10 mg/kg) [h] | AUC(0-t) ([2]; IV, 0.5 mg/kg) [ng·h/mL] | clearance ([2]; IV, 0.5 mg/kg) [mL/min/kg] | AUC(0-t) ([2]; PO, 2.5 mg/kg) [ng·h/mL] | half-life ([2]; PO, 2.5 mg/kg) [h] | AUC(0-t) ([3]; IV, 1 mg/kg) [ng·h/mL] | Cmax ([3]; IV, 1 mg/kg) [ng/mL] | clearance ([3]; IV, 1 mg/kg) [mL/min/kg] | AUC(0-t) ([3]; PO, 5 mg/kg) [ng·h/mL] | Cmax ([3]; PO, 5 mg/kg) [ng/mL] | Structure (SMILES)
1 | > 10 | 6.96 | > 10 | 2200 | 7.21 | 8690 | 4.61 | 1220 | 7.08 | 3910 | 10.5 |  |  |  |  |  | C[C@@H]1OCC2(CCN(c3ncc(Sc4ccnc(N5CC(O)C5)c4Cl)nc3CO)CC2)[C@@H]1N [Control Compound 1]
2 |  |  |  | 576 | 23.2 | 3870 | 5.08 | 614 | 13.2 | 2550 | 12.3 | 696 | 215 | 24.6 | 2760 | 363 | Cc1nc(N2CCC3(CC2)CO[C@@H](C)[C@H]3N)c(CO)nc1Sc1ccnc(N)c1Cl [Control Compound 2]
